The text below walks through data of article PMC4901321, “Screening of saponins and sapogenins from Medicago species as potential PPARγ agonists and X-ray structure of the complex PPARγ/caulophyllogenin” (Scientific Reports, 2016).

One data set relates to HepG2 cells. Nature of the data set: MTT assay for cell viability. In kind it is cell-based, human. The conditions noted are these: for IC50: read-out: IC50 (concentration that reduces the cell viability by 50%). On the technique in general: Tetrazolium dyes change colour on reduction, which living cells bring about.
The target in data set [1] is T1, PPARγ LBD (Homo sapiens, UniProt P37231).
T1 construct: PPARγ LBD was expressed as N-terminal His-tagged proteins using a pET28 vector; His tag (N, cleaved yes); made in house; host or cells: E. coli BL21 DE3
T1 sequence (P37231 238-503 limits assumed): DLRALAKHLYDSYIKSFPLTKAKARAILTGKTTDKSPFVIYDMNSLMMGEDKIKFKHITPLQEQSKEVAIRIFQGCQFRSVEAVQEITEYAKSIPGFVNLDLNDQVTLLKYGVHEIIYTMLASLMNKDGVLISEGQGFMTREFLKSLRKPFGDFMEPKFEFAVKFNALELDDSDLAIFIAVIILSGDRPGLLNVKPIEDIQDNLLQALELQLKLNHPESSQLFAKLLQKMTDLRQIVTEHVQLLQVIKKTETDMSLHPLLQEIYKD
As to the kind of experiment: Surface plasmon resonance, PPARγ receptor/saponin or sapogenin interactions. The class given is binding. To be noted: for Kd: koff/kon; for affinity to the nuclear receptor: in words. (In SPR one partner is held on a chip, and binding of the other changes the refractive index at the surface.)
Description: PPARγ LBD was expressed as N-terminal His-tagged proteins using a pET28 vector and then purified as previously described[40]. Briefly, freshly transformed E. coli BL21 DE3 were grown in LB medium with 30 μg of kanamycin/mL at 310 K to an OD of 0.6. […] Cells were harvested and resuspended in a 20 mL/liter culture of Buffer A (20 mM Tris, 150 mM NaCl, 10% glycerol, 1 mM Tris 2-carboxyethylphosphine HCl (TCEP), pH 8) in the presence of protease inhibitors (Complete Mini EDTA-free; Roche Applied Science). Cells were sonicated, and the soluble fraction was isolated by centrifugation (35,000 × g for 45 min). The supernatant was loaded onto a Ni^2+ -nitrilotriacetic acid column (GE Healthcare) and eluted with a gradient of imidazole 0–300 mM in Buffer A (batch method). The pure protein was identified by SDS PAGE. The protein was then dialyzed over buffer A to remove imidazole, and it was cleaved with thrombin protease (GE Healthcare) (10 units/mg) at room temperature for 2 h. The digested mixture was reloaded onto a Ni^2+ -nitriloacetic acid column to remove His tag and the undigested protein. The flow-through was loaded onto a Q-Sepharose HP column (GE Healthcare) and eluted with a gradient of NaCl 0–500 mM in Buffer B (20 mM Tris, 10% glycerol, 1 mM TCEP, pH 8) with a BioLogic DuoFlow FPLC system (Bio-Rad Laboratories, Italy). Finally, the protein was purified by gel-filtration chromatography on a HiLoad Superdex 75 column (GE Healthcare) and eluted with Buffer C (20 mM Tris, 1 mM TCEP, 0.5 mM EDTA, pH 8). The protein was then concentrated at 8 mg/mL using Amicon centrifugal concentrators with a 10 kDa cutoff membrane (Millipore, USA). Part of the protein was used for SPR experiments.
Surface plasmon resonance analyses were performed by using Pioneer AE optical biosensor equipped with COOH5 chips (SensiQ). PPARγ surfaces were prepared by using standard amine-coupling procedures[45] and HBS (Hepes-buffered saline: 20 mM Hepes, 150 mM sodium chloride, 0.005% P20, pH 7.4) as the running buffer. Flow cells were activated for 7 min by injecting 140 μL of 50 mM N-hydroxysuccinimide (NHS):200 mM ethyl-3(3-dimethylamino) propyl carbodiimide (EDC). Fifty μL of a 0.25 mg/mL PPARγ solution (in 10 mM sodium acetate, pH 5.0) were injected for 5 min at 10 μL/min on channels 1 and 3 (channel 2 was used as ref. [3], for a duplicate experiment), followed by a 70-μL injection of ethanolamine to block any remaining activated groups on the surface. […] The screening of the analytes (saponins and sapogenins) was performed using HBS without P20, with 1 mM DTT and 2% DMSO. To collect detailed kinetic data the OneStep[46][47][48] protocol was used, injecting the analytes at a flow rate of 50 μL/min and at the concentration of 100 μM (50 μM for 14 and 15) over the three channels at 20 °C (association phase of 180 s). Five buffer blanks were injected for double referencing . […] A DMSO calibration plot was constructed (buffer sample containing 1–3% (vol/vol) DMSO) to correct for bulk refractive index shifts[49]. Data were collected at a rate of 20 Hz. All sensorgrams were processed by using double referencing[50]. First, the responses from the reference surface (channel 2) were subtracted from the binding responses collected over the reaction surfaces to correct for bulk refractive index changes.

Data set [2] has as its system PPARγ. Details: method as in PMID 25487878. The conditions noted are these: cited from earlier work.
Data set [3] has as its target T1, PPARγ LBD. Nature of the data set: Isothermal titration calorimetry. The class given is binding. The method, then: ITC experiments were performed at 22 °C by using a ITC200 microcalorimeter (MicroCal, Inc., Northampton, MA, USA). […] DMSO was added to the protein solution at the same percentage of the ligand solution (2%) for the experiment with SAP19. The protein solution (50 μM) was placed in the sample cell, and ligand solution (500 μM) was loaded into the syringe injector (PPARγ 40 μM and the ligand 400 μM for the experiment with 13-HODE) . The titrations involved 19 injections of 2 μL each at 150 s intervals. A reference titration of ligand into buffer was used to correct for heats of dilution. Thermodynamic data was processed with Origin 7.0 software (MicroCal). Fitting the isotherms with one-site binding model yealded the values of the association constant (Ka).
For orientation: ITC needs no label: the signal is the heat of the interaction.

Data set [4] has as its target T2, PPARγ (Homo sapiens, UniProt P37231).
T2 construct: expressed in transfected cells; host or cells: HepG2
T2 sequence (P37231 238-503 limits assumed): T1 sequence (P37231 238-503 limits assumed)
As to the kind of experiment: Displacement experiments against rosiglitazone (antagonist behavior, transactivation). The class given is cell-based. The method, then:
The antagonist behavior of the above compounds was also evaluated in displacement experiments against rosiglitazone.
For transactivation assays, 1·10^5 cells per well were seeded in a 96-well plate and transfected after 24 h with K2 Transfection System (Biontex Laboratories GmbH), according to the manufacturer’s protocol using 0.20 μg/well of DNA. Cells were transfected with expression plasmids encoding the fusion protein Gal4-PPARα-LBD or Gal4-PPARγ-LBD, pGal5TKpGL3, and pCMVβgal to normalize the transfection efficacy. 24 h after transfection, medium was replaced with fresh complete growth medium supplemented with test compounds (ranging from 200 nM to 100 μM), reference compounds Wy-14,643 (10 μM) and rosiglitazone (2 μM), or DMSO 0.1%. After further 24 h of incubation cells were lysed and luciferase activity in cell extracts was determined by a luminometer (VICTOR^3 V Multilabel Plate Reader, PerkinElmer, Monza, Italy) and normalized for β-galactosidase activity. Fold induction activity was calculated and plotted using GraphPad Prism5 software.

The mark [5] stands for this setting: ITC fit, OneSites model, Supplementary Fig. S3.
[6] abbreviates: SPR, 20 °C, 1:1 model, for 2:1 model fits the first value (high affinity site), error in parentheses.

“Also recorded” adds a separate entry of the source. Like-named read-outs stand apart in the source and are kept apart here.

Description for HepG2 cells: Human hepatocellular liver carcinoma cell line HepG2 (Interlab Cell Line Collection, Genoa, Italy) was cultured in Minimum Essential Medium (MEM) containing 10% heat-inactivated fetal bovine serum, 100 U·mL^−1 of penicillin G, and 100 μg·mL^−1 of streptomycin sulfate at 37 °C in a humidified atmosphere of 5% CO2.
Cell viability was measured using the MTT assay. HepG2 cells were seeded at a density of 1·10^5 cells/well into 96-well flat bottom culture plates containing test compounds (ranging from 200 nM to 100 μM final concentration), in a final volume of 100 μL. […] Control wells lacked inhibitor. After 24 h of incubation at 37 °C in a 5% CO2 atmosphere, 3-(4,5-dimethylthiazole-2-yl)-2,5-diphenyltetrazolium bromide (MTT, 5 mg/mL stock solution) was added to a final concentration of 0.5 mg/mL. To control for background absorbance, six wells of cells were lysed by adding Triton X-100 (0.1% v/v final concentration) immediately prior to the addition of MTT reagent. After incubation under the same conditions for further 3–4 h, the culture medium was removed, the insoluble product dissolved by the addition of 100 μL of solvent (50% DMSO, 50% EtOH v/v), and the absorbance of the well was measured at 570 nm using a PERKIN–ELMER Victor V^3 plate reader. Cell growth inhibition was then calculated using the following Equation,
where V% is the percentage of cell viability, A is the absorbance of treated cultures, Ab is the absorbance of background control, and Ac is the absorbance of control cultures.

For `C[C@@H]1O[C@@H](O[C@H]2[C@H](O[C@H]3[C@H](O[C@H]4CC[C@@]5(C)[C@@H](CC[C@]6(C)[C@@H]5CC=C5[C@@H]7CC(C)(C)C[C@@H](O)[C@]7(C)CC[C@]56C)[C@@]4(C)CO)O[C@H](C(=O)O)[C@@H](O)[C@@H]3O)O[C@H](CO)[C@H](O)[C@@H]2O)[C@H](O)[C@H](O)[C@H]1O` [SAP17, soyasaponin I], the cytotoxicity result with HepG2 cells (HepG2, concentrations up to 100 μM) is listed as “did not show cytotoxicity; also recorded: did not show any cytotoxic activity”. Besides, the IC50 in the data set on HepG2 cells (Homo sapiens, HepG2, 24 h) was > 100 µM. The Koff on PPARγ LBD [1] is 1.68 s⁻¹. On PPARγ LBD [1] (Kd, SPR, 1:1 model, for 2:1 model fits the first value (high affinity site)), this compound returned a Kd of 32.5 µM.

Regarding `CC1(C)CC[C@]2(C(=O)O)CC[C@]3(C)C(=CC[C@@H]4[C@@]5(C)CC[C@H](O)[C@@](C)(CO)[C@@H]5CC[C@]43C)[C@@H]2C1` [SAP20, hederagenin], the “affinity to the nuclear receptor” value on PPARγ LBD [1] (SPR) is recorded as “didn’t show affinity”. Moreover, the Kd at PPARγ LBD [1] (SPR, 1:1 model, for 2:1 model fits the first value (high affinity site), read-out: Kd) was > 1000 µM.

For the compound `CC(C)=CCC[C@](C)(O)[C@H]1CC[C@]2(C)[C@@H]1[C@H](O)C[C@@H]1[C@@]3(C)CC[C@H](O)C(C)(C)[C@@H]3[C@@H](O)C[C@]12C` [protopanaxatriol], the “activity towards PPARγ” value in the data set with PPARγ [2] is given as “antagonist activity”.

Turning to `CC1(C)C[C@@H](O)[C@]2(C)CC[C@]3(C)C(=CC[C@@H]4[C@@]5(C)CC[C@H](O)[C@](C)(CO)[C@@H]5CC[C@]43C)[C@@H]2C1` [SAP24, soyasapogenol B], the “affinity to the nuclear receptor” value on PPARγ LBD [1] (SPR) is given as “didn’t show affinity”.

For the compound `CCCCC[C@H](O)/C=C/C=C\CCCCCCCC(=O)O` [13-(S)-HODE], at PPARγ LBD [3] (setting [5]), the “K (association constant)” value is 106000 M⁻¹, the ΔH is -2206 cal/mol and the ΔS is reported as 15.5 cal/mol/deg. Besides, at PPARγ LBD [3] (ITC, 22 °C), the ΔH was -2210 cal/mol and the “−TΔS” value was -4.56 kcal/mol. This compound also gave an equilibrium dissociation constant (Kd) at PPARγ LBD [3] (ITC, 22 °C, one-site model) of 9.4 µM.

Take `CC1(C)CC[C@]2(C(=O)O)CC[C@]3(C)C(=CCC4[C@@]5(C)C[C@H](O)[C@H](O)[C@@](C)(CO)C5CC[C@]43C)C2C1` (stereo partly drawn) [SAP21, bayogenin]: the “affinity to the nuclear receptor” value on PPARγ LBD [1] (SPR) was “didn’t show affinity”.

Consider echinocystic acid [SAP18], for which the “reduction of the effects of rosiglitazone” value on PPARγ [4] (at 5 μM) worked out at 40%. For the same compound, the “antagonist behavior towards PPARγ” value on PPARγ [4] (in words) is recorded as “antagonist activity”. For the same compound, the IC50 with HepG2 cells (HepG2, MTT, 24 h) was 4.1 ± 0.4 µM. Moreover, the Koff was 0.715(0.002) s^−1 at PPARγ LBD [1] (SPR, 2:1 molecular interaction model, second value in cell (second site)) and 0.0014 s⁻¹ at PPARγ LBD [1] (setting [6]). Also, the Kon at PPARγ LBD [1] (setting [6]) was 144.8(0.2) M^−1s^−1.

In general, Kd refers to a measure of binding affinity in units of concentration.
